# Experimental data from ChEMBL document CHEMBL4130462, “Natural isoflavone biochanin A as a template for the design of new and potent 3-phenylquinolone efflux inhibitors against Mycobacterium avium” (Eur J Med Chem, 2017).
# Columns and labels:
# Mycobacterium avium [1] = test: Antimycobacterial activity against Mycobacterium avium isolate MAV3 assessed as reduction in bacterial viability incubated for 3 days by MTT assay; type: organism-based; conditions: 72 h
# Mycobacterium avium [2] = test: Antimycobacterial activity against Mycobacterium avium isolate MAV4 assessed as reduction in bacterial viability incubated for 3 days by MTT assay; type: organism-based; conditions: 72 h
# [3] = Cytotoxicity in human monocyte-derived macrophages assessed as reduction in cell viability incubated for 3 days by alamar blue dye based assay; design: species or system Macrophage cell line; conditions: for CC50 at 72 h: human monocyte-derived macrophages; for MTC: macrophage cell line, 72 h
# [4] = Safety index, ratio of CC50 for test compound to CC50 for chlorpromazine for cytotoxicity in human monocyte-derived macrophages; type: cell-based, Macrophage cell line
# Mycobacterium avium [5] = conditions: 72 h
# Description: Antimycobacterial activity against Mycobacterium avium 104 assessed as reduction in bacterial viability incubated for 3 days by MTT assay
# Mycobacterium avium [6] = conditions: 104 mc'2 3
# Mycobacterium avium [7] = conditions: 104 mc'2 3; remark: listed apart in the source
# Mycobacterium avium [8] = conditions: isolate MAV1
# Mycobacterium avium [9] = conditions: isolate MAV1; remark: listed apart in the source
# Mycobacterium avium [10] = conditions: isolate MAV2
# Description: Inhibition of multidrug resistance efflux pump in Mycobacterium avium isolate MAV2 assessed as potentiation of clarithromycin -induced antibacterial activity by measuring clarithromycin MIC at 1/2 MIC incubated for 3 days by MTT assay (Rvb = >1024 ug/ml)
# Mycobacterium avium [11] = conditions: isolate MAV3
# Mycobacterium avium [12] = conditions: isolate MAV4
# Description: Inhibition of multidrug resistance efflux pump in Mycobacterium avium isolate MAV4 assessed as potentiation of clarithromycin -induced antibacterial activity by measuring clarithromycin MIC at 1/4 MIC incubated for 3 days by MTT assay
# Mycobacterium avium [13] = conditions: 104 mc'2 3; remark: listed apart in the source
# Mycobacterium avium [14] = conditions: 104 mc'2 4
# Mycobacterium avium [15] = conditions: isolate MAV3; remark: listed apart in the source
# Mycobacterium avium [16] = conditions: isolate MAV4; remark: listed apart in the source
# [17] = tested on: Mycobacterium avium subsp. avium ATCC 25291
# Mycobacterium avium [18] = conditions: 104 mc'2 3; remark: listed apart in the source
# Mycobacterium avium [19] = conditions: 104 mc'2 3; remark: listed apart in the source
# Mycobacterium avium [20] = conditions: 104 mc'2 4; remark: listed apart in the source
# Mycobacterium avium [21] = conditions: 104 mc'2 4; remark: listed apart in the source
# Mycobacterium avium [22] = conditions: isolate MAV2; remark: listed apart in the source
# Mycobacterium avium [23] = conditions: isolate MAV2; remark: listed apart in the source
# Mycobacterium avium [24] = conditions: isolate MAV3; remark: listed apart in the source
# [25] = tested on: Mycobacterium avium subsp. avium ATCC 25291; remark: listed apart in the source
# Mycobacterium avium [26] = conditions: 104
# Mycobacterium avium [27] = conditions: isolate MAV1; remark: listed apart in the source
# Description: Inhibition of multidrug resistance efflux pump in Mycobacterium avium isolate MAV1 assessed as potentiation of ciprofloxacin-induced antibacterial activity by measuring ciprofloxacin MIC at 1/2 MIC incubated for 3 days by MTT assay (Rvb = 2 ug/ml)
# Mycobacterium avium [28] = conditions: isolate MAV1; remark: listed apart in the source
# Description: Inhibition of multidrug resistance efflux pump in Mycobacterium avium isolate MAV1 assessed as potentiation of ciprofloxacin-induced antibacterial activity by measuring ciprofloxacin MIC at 1/4 MIC incubated for 3 days by MTT assay
# Mycobacterium avium [29] = conditions: isolate MAV3; remark: listed apart in the source
# Mycobacterium avium [30] = conditions: isolate MAV3; remark: listed apart in the source
# Mycobacterium avium [31] = conditions: isolate MAV4; remark: listed apart in the source
# [32] = tested on: Mycobacterium avium subsp. avium ATCC 25291; remark: listed apart in the source
# Mycobacterium avium [33] = conditions: 104; remark: listed apart in the source
# Mycobacterium avium [34] = conditions: 104 mc'2 3; remark: listed apart in the source
# Mycobacterium avium [35] = conditions: isolate MAV2; remark: listed apart in the source
# Description: Inhibition of multidrug resistance efflux pump in Mycobacterium avium isolate MAV2 assessed as potentiation of ofloxacin-induced antibacterial activity by measuring ofloxacin MIC at 1/2 MIC incubated for 3 days by MTT assay
# Mycobacterium avium [36] = conditions: isolate MAV3; remark: listed apart in the source
# Mycobacterium avium [37] = conditions: isolate MAV4; remark: listed apart in the source
# Mycobacterium avium [38] = conditions: isolate MAV4; remark: listed apart in the source
# Mycobacterium avium [39] = conditions: 104 mc'2 4; remark: listed apart in the source
# Mycobacterium avium [40] = conditions: isolate MAV2; remark: listed apart in the source
# Mycobacterium avium [41] = conditions: isolate MAV2; remark: listed apart in the source
# Mycobacterium avium [42] = conditions: isolate MAV4; remark: listed apart in the source
# [43] = tested on: Mycobacterium avium subsp. avium ATCC 25291; remark: listed apart in the source
# Description: Inhibition of multidrug resistance efflux pump in Mycobacterium avium ATCC 25291 assessed as potentiation of ethidium bromide-induced antibacterial activity by measuring ethidium bromide MIC at 1/2 MIC incubated for 3 days by MTT assay (Rvb = 50 ug/ml)
smiles,measurement,setting,value
CCCOc1ccc(-c2cn(CCN3CCCCC3)c3ccccc3c2=O)cc1,MIC,Mycobacterium avium [1],128 µg/mL
same,MIC,Mycobacterium avium [2],256 µg/mL
same,CC50 at 72 h,[3],82.2 µM
same,MTC,[3],40 µM
same,selectivity ratio,[4],2 to 4
same,MIC,Mycobacterium avium [5],> 256 µg/mL
same,MIC,Mycobacterium avium [6],< 4 µg/mL
same,MIC,Mycobacterium avium [7],256 µg/mL
same,MIC,Mycobacterium avium [8],< 0.125 µg/mL
same,MIC,Mycobacterium avium [9],0.25 µg/mL
same,MIC,Mycobacterium avium [10],256 µg/mL
same,MIC,Mycobacterium avium [11],2 µg/mL
same,MIC,Mycobacterium avium [12],1 µg/mL
same,MIC,Mycobacterium avium [13],128 µg/mL
same,MIC,Mycobacterium avium [14],128 µg/mL
same,MIC,Mycobacterium avium [15],< 4 µg/mL
same,MIC,Mycobacterium avium [16],< 4 µg/mL
same,MIC,[17],32 µg/mL
same,MIC,Mycobacterium avium [18],< 4 µg/mL
same,MIC,Mycobacterium avium [19],512 µg/mL
same,MIC,Mycobacterium avium [20],< 4 µg/mL
same,MIC,Mycobacterium avium [21],512 µg/mL
same,MIC,Mycobacterium avium [22],256 µg/mL
same,MIC,Mycobacterium avium [23],512 µg/mL
same,MIC,Mycobacterium avium [24],32 µg/mL
same,MIC,[25],8 µg/mL
same,MIC,Mycobacterium avium [26],< 0.125 µg/mL
same,MIC,Mycobacterium avium [27],< 0.031 µg/mL
same,MIC,Mycobacterium avium [28],2 µg/mL
same,MIC,Mycobacterium avium [29],1 µg/mL
same,MIC,Mycobacterium avium [30],2 µg/mL
same,MIC,Mycobacterium avium [31],2 µg/mL
same,MIC,[32],8 µg/mL
same,MIC,Mycobacterium avium [33],< 0.125 µg/mL
same,MIC,Mycobacterium avium [34],8 µg/mL
same,MIC,Mycobacterium avium [35],2 µg/mL
same,MIC,Mycobacterium avium [36],4 µg/mL
same,MIC,Mycobacterium avium [37],< 0.125 µg/mL
same,MIC,Mycobacterium avium [38],4 µg/mL
same,MIC,Mycobacterium avium [39],< 0.195 µg/mL
same,MIC,Mycobacterium avium [40],3.12 µg/mL
same,MIC,Mycobacterium avium [41],6.25 µg/mL
same,MIC,Mycobacterium avium [42],< 0.39 µg/mL
same,MIC,[43],< 0.39 µg/mL
CCCOc1ccc(-c2cn(CCN3CCCCCC3)c3ccccc3c2=O)cc1,MIC,Mycobacterium avium [1],128 µg/mL
same,MIC,Mycobacterium avium [2],256 µg/mL
same,CC50 at 72 h,[3],50 µM
same,MTC,[3],20 µM
same,selectivity ratio,[4],2 to 4
same,MIC,Mycobacterium avium [5],256 µg/mL
same,MIC,Mycobacterium avium [6],< 4 µg/mL
same,MIC,Mycobacterium avium [7],32 µg/mL
same,MIC,Mycobacterium avium [8],< 0.125 µg/mL
same,MIC,Mycobacterium avium [9],< 0.125 µg/mL
same,MIC,Mycobacterium avium [10],< 4 µg/mL
same,MIC,Mycobacterium avium [11],2 µg/mL
same,MIC,Mycobacterium avium [12],4 µg/mL
same,MIC,Mycobacterium avium [13],128 µg/mL
same,MIC,Mycobacterium avium [14],32 µg/mL
same,MIC,Mycobacterium avium [15],< 4 µg/mL
same,MIC,Mycobacterium avium [16],< 4 µg/mL
same,MIC,[17],16 µg/mL
same,MIC,Mycobacterium avium [18],< 4 µg/mL
same,MIC,Mycobacterium avium [19],< 64 µg/mL
same,MIC,Mycobacterium avium [20],< 4 µg/mL
same,MIC,Mycobacterium avium [21],128 µg/mL
same,MIC,Mycobacterium avium [22],< 4 µg/mL
same,MIC,Mycobacterium avium [23],256 µg/mL
same,MIC,Mycobacterium avium [24],32 µg/mL
same,MIC,[25],8 µg/mL
same,MIC,Mycobacterium avium [26],1 µg/mL
same,MIC,Mycobacterium avium [27],< 0.031 µg/mL
same,MIC,Mycobacterium avium [28],0.5 µg/mL
same,MIC,Mycobacterium avium [29],0.5 µg/mL
same,MIC,Mycobacterium avium [30],4 µg/mL
same,MIC,Mycobacterium avium [31],2 µg/mL
same,MIC,[32],8 µg/mL
same,MIC,Mycobacterium avium [33],4 µg/mL
same,MIC,Mycobacterium avium [34],4 µg/mL
same,MIC,Mycobacterium avium [35],2 µg/mL
same,MIC,Mycobacterium avium [36],1 µg/mL
same,MIC,Mycobacterium avium [37],< 0.125 µg/mL
same,MIC,Mycobacterium avium [38],8 µg/mL
same,MIC,Mycobacterium avium [39],< 0.195 µg/mL
same,MIC,Mycobacterium avium [40],< 0.195 µg/mL
same,MIC,Mycobacterium avium [41],3.12 µg/mL
same,MIC,Mycobacterium avium [42],< 0.39 µg/mL
same,MIC,[43],< 0.39 µg/mL
CCCOc1ccc(-c2cn(CCN(CC)CC)c3ccccc3c2=O)cc1,MIC,Mycobacterium avium [1],128 µg/mL
same,MIC,Mycobacterium avium [2],256 µg/mL
same,CC50 at 72 h,[3],56.9 µM
same,MTC,[3],10 µM
same,selectivity ratio,[4],2 to 4
same,MIC,Mycobacterium avium [5],256 µg/mL
same,MIC,Mycobacterium avium [6],256 µg/mL
same,MIC,Mycobacterium avium [7],512 µg/mL
same,MIC,Mycobacterium avium [8],0.5 µg/mL
same,MIC,Mycobacterium avium [9],2 µg/mL
same,MIC,Mycobacterium avium [10],64 µg/mL
same,MIC,Mycobacterium avium [11],8 µg/mL
same,MIC,Mycobacterium avium [12],8 µg/mL
same,MIC,Mycobacterium avium [13],512 µg/mL
same,MIC,Mycobacterium avium [14],512 µg/mL
same,MIC,Mycobacterium avium [15],128 µg/mL
same,MIC,Mycobacterium avium [16],8 µg/mL
same,MIC,[17],128 µg/mL
same,MIC,Mycobacterium avium [18],512 µg/mL
same,MIC,Mycobacterium avium [19],512 µg/mL
same,MIC,Mycobacterium avium [20],256 µg/mL
same,MIC,Mycobacterium avium [21],> 512 µg/mL
same,MIC,Mycobacterium avium [22],16 µg/mL
same,MIC,Mycobacterium avium [23],512 µg/mL
same,MIC,Mycobacterium avium [24],128 µg/mL
same,MIC,[25],64 µg/mL
same,MIC,Mycobacterium avium [26],2 µg/mL
same,MIC,Mycobacterium avium [27],2 µg/mL
same,MIC,Mycobacterium avium [28],2 µg/mL
same,MIC,Mycobacterium avium [29],8 µg/mL
same,MIC,Mycobacterium avium [30],32 µg/mL
same,MIC,Mycobacterium avium [31],8 µg/mL
same,MIC,[32],32 µg/mL
same,MIC,Mycobacterium avium [33],4 µg/mL
same,MIC,Mycobacterium avium [34],8 µg/mL
same,MIC,Mycobacterium avium [35],1 µg/mL
same,MIC,Mycobacterium avium [36],4 µg/mL
same,MIC,Mycobacterium avium [37],4 µg/mL
same,MIC,Mycobacterium avium [38],16 µg/mL
same,MIC,Mycobacterium avium [39],3.12 µg/mL
same,MIC,Mycobacterium avium [40],6.25 µg/mL
same,MIC,Mycobacterium avium [41],6.25 µg/mL
same,MIC,Mycobacterium avium [42],6.25 µg/mL
same,MIC,[43],25 µg/mL
